Assay results reported in US12063902B2, “Method of regenerating cannabis” (The State of Israel, Ministry of Agriculture & Rural …, priority 2018, dated 2024).

Tests used:
[1] = system: Cannabis leaf segment explants; assay: Somatic embryogenesis in liquid culture; type: cell-based, Cannabis sativa; conditions: liquid Gamborg B5 medium
Method: Leaf segments from tissue culture grown on the solid medium (1.5 cm diameter and 4-5 cm long) of two Cannabis cultivars (108 and 201) were used. Innermost leaf whorls were cut obliquely (0.5-1.0 cm), injured with sharp scalpel blade in order to achieve callus initiation. Leaf segment, were used as explant for inoculation on MS medium (Murashige and Skoog 1962) supplemented with 2,4-D (4.0 mg/L) and kinetin [Kin] (0.5 mg/L). After 2-3 weeks the cultures were incubated at 25±2 C at 70-80% humidity in dark in liquid Gamborg B5 medium supplemented with 6% sucrose and different plant hormones (Table 1). The media was refreshed every three weeks.
Leaf segments from tissue culture from two different genotypes (108 and 201) have been used as primary explants. The explants were chopped to small pieces (as less as 0.5 mm) and cultivated in liquid Gamborg B5 medium supplemented with 6% sucrose and different plant hormones (Table 1). The media were refreshed every three weeks.
The initiated suspension cultures along with embryos in globular stage (FIGS. 12A-12B) were sub-cultured in the same medium for three weeks. Part of the cultures was transferred to B5 Gamborg media, supplemented with different hormones/chemicals (Table 2) to provoke embryo elongation and further development. The cultures were transferred to fresh media every three weeks.

Cannabis explants = assay: Shoot regeneration in tissue culture with "regeneration premium treatment"; type: cell-based, Cannabis sativa
Method: Regeneration from Cannabis plant material using tissue culture, germinated leaves, cotyledons and hypocotyls were used for regeneration. The plants were placed on a petri dish containing 20 ml regeneration media using premium treatment with cuticle nicking enzymes: MS salt mixture, supplemented with 100 mg/l myo-inositol, 1 mg/l thiamine-HCl, 2% sucrose (w/v) at pH 5.7) with and without 5 ml pectic enzymes reaction mixture (0.25 ml 10% enzyme fungal mix of pectin and cutinase 0.25 ml 200 mM Tris-HCl).
Three youngest expanding leaves isolated from 3 to 4 weeks old plants were with and placed on regeneration medium with cuticle nicking enzymes (Murashige and Skoog (MS) medium salt mixture, containing 0.05-5.0 μM thidiazuron, supplemented with 100 mg/l myo-inositol, 1 mg/l thiamine-HCl, 2% sucrose (w/v) at pH 5.7, with 5 ml pectic enzymes reaction mixture (0.25 ml 10% cuticle nicking enzyme in 0.25 ml 200 mM Tris-HCl). The cultures were kept for 7 days in low light intensity (2.5 mmol/m2 s) followed by exposure to high light intensity (40 mmol/m2 s) at 25° C., in a 16/8 h photoperiod. Leaf explants were examined after 14 and 21 days and the percentage of explant producing shoots were calculated. […]

Cannabis shoots = assay: Rooting (root induction) of shoots; type: cell-based, Cannabis sativa L.
Method: Shoot was cultivated individually in a tube with root induction (RI) medium composed of half strength MS medium (½MS) supplemented with 100 mg/l myo-inositol, 1 mg/l thiamine-HCl, 90 mg/l phloroglucinol, 2% sucrose (w/v), 0.25% activated charcoal (AC), with or without IBA (at different concentrations (0, 1, 2 mg/l) and 0.8% agar. Soil mixture was moistened by soaking the rooting cylinders in liquid RI medium supplemented with either 0, 1, or 2 mg/l IBA. Each treatment consisted of 10 shoots and results were scored after 4 weeks. Each experiment was repeated three times.
To obtain root induction, different concentrations of IBA were examined. The shoots were placed in a tube containing rooting medium containing 0, 1, or 2 mg/l IBA. Using this method with 2 mg/l IBA, about 85% of the shoots formed roots. However, only low percentage of these plants successfully acclimatized under greenhouse conditions. According to the second approach, shoots were cultured directly in rooting cylinders. After 4 weeks, 100% root formation was achieved, independently of the concentration of auxin used (FIGS. 5A-5C). These plants had better hardening and underwent easier acclimatization in greenhouse conditions. In-vitro clonal propagation, rooting and acclimatized plantlet production was established for 10 different Cannabis cultivars. […]

For `O=C(Nc1ccccc1)Nc1ccnc(Cl)c1` [CPPU], the somatic embryo initiation ([1]; 10 mg/l, 6% sucrose) was “essential for the embryo initiation”.

`C=C1C[C@]23C[C@@]1(O)CC[C@H]2[C@@]12C=C[C@H](O)[C@@](C)(C(=O)O1)[C@H]2[C@@H]3C(=O)O` [gibberellic acid] was tested, and the shoot growth (Cannabis explants; 7.0 μM gibberellic acid added to medium containing 0.5 μM thidiazuron) was “slightly increased shoot growth”.

For `O=C(O)CCCc1c[nH]c2ccccc12` [IBA, indol-3-butyric acid], the root formation (Cannabis shoots; shoots cultured directly in rooting cylinders, after 4 weeks, independently of the concentration of auxin (0, 1, 2 mg/l IBA)) was 100% and the shoots formed roots (Cannabis shoots; tube containing rooting medium, 2 mg/l IBA) was “about 85%”.

In the case of `CC(C)=CCNc1ncnc2nc[nH]c12` [2iP], the “amount of somatic embryos generated” value ([1]; gyratory shaker at dark) is reported as “Low amounts of embryos”.

`O=C(Nc1ccccc1)Nc1cnns1` [thidiazuron] was tested, and the “quality and quantity of regenerates” value (Cannabis explants; 0.5 μM thidiazuron, media treatment with cuticle nicking enzymes) was “better”.
